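Briefly, cells in 96-well plates were exposed to five compound concentrations for 48 h, and endpoints were estimated by linear interpolation. Here, GI50 denotes the concentration required for 50% inhibition of growth. TGI marks complete inhibition of growth.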
Columns and labels:
Test in all cases: NCI-60 cell line screen, 48 h
DMS 273 small cell lung = test system: DMS 273 small cell lung
DU-145 prostate = test system: DU-145 prostate
K-562 leukemia = test system: K-562 leukemia
KM20L2 colon = test system: KM20L2 colon
NCI-H460 lung = test system: NCI-H460 lung
SK-MEL-28 melanoma = test system: SK-MEL-28 melanoma
SK-MEL-5 melanoma = test system: SK-MEL-5 melanoma
SN12C renal = test system: SN12C renal
SNB-19 CNS = test system: SNB-19 CNS
SW-620 colon = test system: SW-620 colon

| SMILES | TGI (DMS 273 small cell lung) | TGI (DU-145 prostate) | TGI (K-562 leukemia) | TGI (KM20L2 colon) | TGI (NCI-H460 lung) | TGI (SK-MEL-28 melanoma) | TGI (SK-MEL-5 melanoma) | TGI (SN12C renal) | TGI (SNB-19 CNS) | TGI (SW-620 colon) | GI50 (DU-145 prostate) |
| --- | --- | --- | --- | --- | --- | --- | --- | --- | --- | --- | --- |
| CCCCCCCCC/C=C1\CCC(CN2CCOCC2)C1=O (centres undefined) | 5.08 µM | 17.5 µM | 15.6 µM | 20.5 µM | 21.1 µM | 9.2 µM | 18.8 µM | 13 µM | 23.5 µM | 5.43 µM | – |
| CSc1nc(NC2OCC(OC(C)=O)C(OC(C)=O)C2OC(C)=O)c(N=CC=Nc2c(NC3OCC(OC(C)=O)C(OC(C)=O)C3OC(C)=O)nc(SC)[nH]c2=O)c(=O)[nH]1 (centres undefined) | > 100 µM | > 100 µM | > 100 µM | > 100 µM | > 100 µM | > 100 µM | > 100 µM | > 100 µM | > 85.8 µM | > 100 µM | – |
| CC(C)(C)OC(=O)N[C@H]1CC2(C=C(Cl)C(=O)C(Cl)=C2)OC1=O | 32.9 µM | 78.9 µM | 7.41 µM | 39.4 µM | 56.2 µM | 25 µM | 38.5 µM | 33.3 µM | > 100 µM | 19.1 µM | – |
| OCc1ccc(-c2ccc(-c3ccc(CO)s3)o2)s1 | > 49.5 µM | 66.5 µM | 38.3 µM | 1.19 µM | 2.89 µM | > 91.9 µM | 69.7 µM | 81 µM | > 100 µM | > 100 µM | – |
| CCOC(=O)NC(=O)c1cn(CCCO)c(=O)[nH]c1=O | > 100 µM | – | > 100 µM | > 100 µM | > 100 µM | > 100 µM | > 100 µM | > 100 µM | > 100 µM | > 100 µM | – |
| Nc1ncnc2c1nnn2C1OC(CO)C(O)C1O (centres undefined) | 13.6 µM | 1.91 µM | 13.9 µM | > 74.3 µM | 5.64 µM | 14.9 µM | 5.63 µM | 6.77 µM | > 52.5 µM | 8.35 µM | 0.144 µM |
| O=c1cc(-c2ccccc2)oc2cc(OCCCOc3ccc4c(=O)cc(-c5ccccc5)oc4c3)ccc12 | > 100 µM | – | > 100 µM | > 100 µM | > 100 µM | > 100 µM | > 100 µM | > 100 µM | > 100 µM | > 100 µM | – |
